Ends that are not written are not given here.
How the values were obtained:
[1] = cited from earlier work
Text: In vitro dissolution is the standard method used in the pharmaceutical industry to assess drug release from solid oral dosage forms and to predict the release profile in the GI tract by simulating the GI environment with appropriate buffer media. In vivo/ in vitro correlation analysis (IVIVC) was specifically designed to assess whether in vitro predictions match in vivo drug behavior. However, in this study IVIVC could not be performed for several reasons, including the lack of an injectable formulation, an immediate release and other multiple other extended release formulations and the ...

[2] = LA concentration in porcine intestinal fluid collected via in vivo ultrafiltration probes, UPLC-MS/MS; conditions: pig; for level at time molar at 1 h / level at time molar at 2 h / level at time molar at 3 h / level at time molar at 4 h: female, Yorkshire cross, po, 1 mg; for Concentration of LA fragments in duodenal and jejunal samples: oral 1 mg LA, fragments detected, all concentrations below the LLOQ, UPLC-MS/MS;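 as to all read-outs here: pigs aged 6–8 weeks and weighing 15–20 kg, intestinal fluid sampled through surgically implanted ultrafiltration probes whose placement was checked post mortem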
Description: Three female Yorkshire cross pigs weighing between 15–20 kg and 6–8 weeks of age were used in this study. […] All pigs were considered healthy on the basis of physical exams, which were performed upon delivery and after a minimum of 3 days’ acclimatization. The animals were housed individually in stainless steel pens to allow comprehensive observation of changes to the animal’s behavior, feed consumption, and volume or character of excreta. While housed in pens, each animal had free access to water, and commercial pig pelleted feed was provided twice daily.
Pigs were sedated with injection of ketamine (11 mg/kg, IM; Vedco) and xylazine (0.25 mg/kg, IM; Akorn Animal Health). Intravenous administration of buprenorphine (0.04 mg/kg; Par Pharmaceutical) and intramuscular administration of flunixin meglumine (2.2 mg/kg; Norbrook) and ceftiofur sodium (Excede for Swine, 8mg/kg; Med Pharmex Inc) were given for analgesia and infection prophylaxis, respectively. Pigs were intubated and maintained under general anesthesia using isoflurane delivered in 100% oxygen during the surgery. The abdomen was approached via midline laparotomy, and the pylorus was located. The duodenum was traced from the pylorus to an accessible point on the left side of the abdomen approximately 15–18 cm distal to the pylorus (Fig 2). The intestine was lifted and an incision was made using a #11 scalpel blade, piercing the anti-mesenteric intestinal wall into the lumen. A guide needle was used to introduce the UF probe into the duodenum threading the probe proximally toward the pylorus. The guide needle was subsequently removed, taking care to leave the UF probe in place [20]. The three loops of the UF probe remained within the intestine, and each probe was secured in the intestine by using a Halstead pattern suture around the probe, followed by a finger trap suture pattern using 3–0 Vicryl (Henry Schein). The nonpermeable connection tubing of the UF probe was extended to the lateral body wall, paramedian to the incision, and retrieved through a guide needle in order to exteriorize the tubing. The tubing was secured outside the animal by suturing the tubing to the skin using 3–0 nylon suture (Fig 3). The tubing was attached to a needle inserted into a vacutainer for sample collection during the remainder of the experiment. A second UF probe was placed into the jejunum 20 cm distal to the duodenum using the same methodology (Fig 2). The abdomen was closed in a routine manner. The pigs were monitored for assessment of pain each day of the experiment and given buprenorphine as an analgesic medication if necessary.
The formulated beads were weighed and placed into gelatin capsules prior to dosing.

[3] = Non compartmental pharmacokinetic analysis of LA in porcine intestinal fluid; format: in vivo; conditions: pig intestinal fluid, oral LA 1 mg total (~0.05 mg/kg)
Description: Non compartmental pharmacokinetic analyses of LA in the intestinal fluid was performed using commercially available software (Phoenix® WinNonlin® Software version 8.3, Certara, Princeton, NJ). The pharmacokinetic parameters estimated for LA in intestinal fluid after oral administration included the elimination rate constant (λz), elimination half life (HLλz), the area under the curve from time zero to the last time point (AUClast), the maximum concentration (Cmax), time to maximum concentration (Tmax), the mean drug residence time from time zero to the last time point (MRTlast), which were calculated using the linear log trapezoidal method.

[4] = intestinal fluid (distal duodenum)
[5] = intestinal fluid (proximal jejunum)
[6] = intestinal fluid, distal duodenum
[7] = intestinal fluid, proximal jejunum
[8] = distal duodenum, mean of 3 dose replicates
[9] = proximal jejunum, mean of 3 dose replicates

In the case of GGVLVQPG [LA, Larazotide acetate], the “Concentrations in human plasma” value ([1]; all groups administered 0.25, 1, 4 and 8 mg LA, below the LOQ) is listed as < 0.5 ng/mL, the Plasma concentrations ([1]; human plasma, oral LA (12mg), HPLC-MS/MS, all below LLOQ) is listed as < 0.5 ng/mL and the level at time molar at 1 h [2, 4] is listed as 0.74 ± 0.3 µM. The level at time molar at 2 h [2, 4] was 0.27 ± 0.14 µM, the level at time molar at 3 h [2, 4] was 0.12 ± 0.09 µM and the level at time molar at 4 h [2, 4] was 0.03 ± 0.01 µM. For the same substance, the level at time molar at 1 h [2, 5] was 1.1 ± 0.48 µM, the level at time molar at 2 h [2, 5] was 0.25 ± 0.13 µM and the level at time molar at 3 h [2, 5] was 0.09 ± 0.1 µM. The level at time molar at 4 h [2, 5] was 0.03 ± 0.04 µM, the level at time molar at 1 h [2, 6] was 0.74 µM and the level at time molar at 2 h [2, 6] was 0.27 µM. For the same substance, the level at time molar at 3 h [2, 6] was 0.12 µM, the level at time molar at 4 h [2, 6] was 0.03 µM and the level at time molar at 1 h ([2]; intestinal fluid, distal duodenum, LA concentration (µM), oral 1 mg LA human clinical formulation, 1h, case number 1, single measurement) was 0.32 µM. For the same substance, the level at time molar at 1 h ([2]; intestinal fluid, distal duodenum, LA concentration (µM), oral 1 mg LA human clinical formulation, 1h, case number 2, single measurement) was 0.98 µM, the level at time molar at 1 h ([2]; intestinal fluid, distal duodenum, LA concentration (µM), oral 1 mg LA human clinical formulation, 1h, case number 3, single measurement) was 0.93 µM and the level at time molar at 2 h ([2]; intestinal fluid, distal duodenum, LA concentration (µM), oral 1 mg LA human clinical formulation, 2h, case number 1, single measurement) was 0.14 µM. The level at time molar at 2 h ([2]; intestinal fluid, distal duodenum, LA concentration (µM), oral 1 mg LA human clinical formulation, 2h, case number 2, single measurement) was 0.21 µM, the level at time molar at 2 h ([2]; intestinal fluid, distal duodenum, LA concentration (µM), oral 1 mg LA human clinical formulation, 2h, case number 3, single measurement) was 0.47 µM and the level at time molar at 3 h ([2]; intestinal fluid, distal duodenum, LA concentration (µM), oral 1 mg LA human clinical formulation, 3h, case number 1, single measurement) was 0.03 µM. The level at time molar at 3 h ([2]; intestinal fluid, distal duodenum, LA concentration (µM), oral 1 mg LA human clinical formulation, 3h, case number 2, single measurement) was 0.09 µM, the level at time molar at 3 h ([2]; intestinal fluid, distal duodenum, LA concentration (µM), oral 1 mg LA human clinical formulation, 3h, case number 3, single measurement) was 0.25 µM and the level at time molar at 4 h ([2]; intestinal fluid, distal duodenum, LA concentration (µM), oral 1 mg LA human clinical formulation, 4h, case number 1, single measurement) was 0.03 µM. The level at time molar at 4 h ([2]; intestinal fluid, distal duodenum, LA concentration (µM), oral 1 mg LA human clinical formulation, 4h, case number 2, single measurement) was 0.02 µM, the level at time molar at 4 h ([2]; intestinal fluid, distal duodenum, LA concentration (µM), oral 1 mg LA human clinical formulation, 4h, case number 3, single measurement) was 0.03 µM and the level at time molar at 1 h [2, 7] was 1.1 µM. For the same substance, the level at time molar at 2 h [2, 7] was 0.25 µM, the level at time molar at 3 h [2, 7] was 0.09 µM and the level at time molar at 4 h [2, 7] was 0.03 µM. The level at time molar at 1 h ([2]; intestinal fluid, proximal jejunum, LA concentration (µM), oral 1 mg LA human clinical formulation, 1h, case number 1, single measurement) was 0.65 µM, the level at time molar at 1 h ([2]; intestinal fluid, proximal jejunum, LA concentration (µM), oral 1 mg LA human clinical formulation, 1h, case number 2, single measurement) was 1.76 µM and the level at time molar at 1 h ([2]; intestinal fluid, proximal jejunum, LA concentration (µM), oral 1 mg LA human clinical formulation, 1h, case number 3, single measurement) was 0.88 µM. The level at time molar at 2 h ([2]; intestinal fluid, proximal jejunum, LA concentration (µM), oral 1 mg LA human clinical formulation, 2h, case number 1, single measurement) was 0.13 µM, the level at time molar at 2 h ([2]; intestinal fluid, proximal jejunum, LA concentration (µM), oral 1 mg LA human clinical formulation, 2h, case number 2, single measurement) was 0.18 µM and the level at time molar at 2 h ([2]; intestinal fluid, proximal jejunum, LA concentration (µM), oral 1 mg LA human clinical formulation, 2h, case number 3, single measurement) was 0.43 µM. It also gave a level at time molar at 3 h ([2]; intestinal fluid, proximal jejunum, LA concentration (µM), oral 1 mg LA human clinical formulation, 3h, case number 1, single measurement) of 0.04 µM, a level at time molar at 3 h ([2]; intestinal fluid, proximal jejunum, LA concentration (µM), oral 1 mg LA human clinical formulation, 3h, case number 3, single measurement) of 0.22 µM and a level at time molar at 4 h ([2]; intestinal fluid, proximal jejunum, LA concentration (µM), oral 1 mg LA human clinical formulation, 4h, case number 2, single measurement) of 0.09 µM. For the same substance, the “Continued presence of LA, concentration in proximal jejunum” value ([2]; fasted, oral 1 mg LA clinical formulation, proximal jejunum, 2–4 hours, range of individual samples) was 0.00 to 0.43 µM, the “LA concentration” value ([2]; oral 1 mg LA human clinical formulation, proximal jejunum, 0h, case number 2, single measurement) was 0.00 µM and the “LA concentration” value ([2]; oral 1 mg LA human clinical formulation, proximal jejunum, 0h, case number 3, single measurement) was 0.00 µM. The “LA concentration” value ([2]; oral 1 mg LA human clinical formulation, proximal jejunum, 3h, case number 2, single measurement, below LOD reported as zero) was 0.00 µM, the “LA concentration” value ([2]; oral 1 mg LA human clinical formulation, proximal jejunum, 4h, case number 1, single measurement, below LOD reported as zero) was 0.00 µM and the “LA concentration” value ([2]; oral 1 mg LA human clinical formulation, proximal jejunum, 4h, case number 3, single measurement, below LOD reported as zero) was 0.00 µM. For the same substance, the “MRTlast, mean residence time from time zero to the last time point” value (from here on “MRTlast, mean residence time”) ([3]; distal duodenum, dose replicate # 1) was 1.58 h, the “MRTlast, mean residence time” value ([3]; distal duodenum, dose replicate # 2) was 1.42 h and the “MRTlast, mean residence time” value ([3]; distal duodenum, dose replicate # 3) was 1.65 h. The “AUClast, area under the curve from time zero to the last time point” value [3, 8] was 770 ng·h/mL, the “Cmax, maximum concentration” value [3, 8] was 530 ng/mL and the “HLλz, elimination half life” value [3, 8] was 0.65 h. The “MRTlast, mean residence time” value [3, 8] was 1.55 h, the “Tmax, time to the maximum concentration” value [3, 8] was 1 h and the “Λz, elimination rate constant” value [3, 8] was 1.14 h⁻¹. For the same substance, the “MRTlast, mean residence time” value ([3]; proximal jejunum, dose replicate # 1) was 1.31 h, the “MRTlast, mean residence time” value ([3]; proximal jejunum, dose replicate # 2) was 1.26 h and the “MRTlast, mean residence time” value ([3]; proximal jejunum, dose replicate # 3) was 1.53 h. For the same substance, the “AUClast, area under the curve from time zero to the last time point” value [3, 9] was 910 ng·h/mL, the “Cmax, maximum concentration” value [3, 9] was 780 ng/mL and the “HLλz, elimination half life” value [3, 9] was 0.76 h. The “MRTlast, mean residence time” value [3, 9] was 1.37 h, the “Tmax, time to the maximum concentration” value [3, 9] was 1 h and the “Λz, elimination rate constant” value [3, 9] was 1.0 h⁻¹.
For H-GGVLVQP-OH [Fragment 3], the “Concentration of LA fragments in duodenal and jejunal samples” value (from here on “Concentration of LA fragments”) [2] was < 150 nM.
With H-GVLVQPG-OH [Fragment 1] the “Concentration of LA fragments” value [2] was < 150 nM.
In the case of H-VLVQPG-OH [Fragment 2], the “Concentration of LA fragments” value [2] is reported as < 160 nM.
For H-Val-Leu-Val-Gln-Pro-OH [Fragment 4], the “Concentration of LA fragments” value [2] was < 170 nM.
